Measurements from PubChem BioAssay (NCI).
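Assay format: 96-well plates, 48-hour exposure. TGI denotes the concentration required for complete inhibition of growth.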

Columns and labels:
Experiment in all cases: NCI-60 cell line screen, 48 h
[1] = test system: HT29 colon
[2] = test system: SNB-19 CNS
[3] = test system: KM20L2 colon
[4] = test system: OVCAR-8 ovarian
[5] = test system: OVCAR-4 ovarian
[6] = test system: HOP-62 NSCLC
[7] = test system: ACHN renal
[8] = test system: NCI-H460 lung
[9] = test system: SK-MEL-2 melanoma
[10] = test system: EKVX NSCLC
[11] = test system: CAKI-1 renal
[12] = test system: 786-0 renal
[13] = test system: DLD-1 colon
[14] = test system: HL-60(TB) leukemia
[15] = test system: KM12 colon
[16] = test system: RPMI-8226 leukemia
[17] = test system: SK-MEL-5 melanoma
[18] = test system: A498 renal
[19] = test system: SR leukemia
[20] = test system: SK-MEL-28 melanoma
[21] = test system: SW-620 colon
[22] = test system: HCC-2998 colon
[23] = test system: A549 NSCLC
[24] = test system: SF-268 CNS
[25] = test system: NCI-H23 lung
[26] = test system: MALME-3M melanoma
[27] = test system: UO-31 renal
[28] = test system: CCRF-CEM leukemia
[29] = test system: NCI-H226 lung
[30] = test system: NCI-H522 lung
[31] = test system: SK-OV-3 ovarian
[32] = test system: SF-295 CNS
[33] = test system: SNB-75 CNS
[34] = test system: K-562 leukemia
[35] = test system: OVCAR-5 ovarian
[36] = test system: U251 CNS
[37] = test system: SNB-78 CNS
[38] = test system: SN12C renal
[39] = test system: TK-10 renal
[40] = test system: HOP-92 NSCLC
[41] = test system: UACC-257 melanoma
[42] = test system: M14 melanoma
[43] = test system: IGROV1 ovarian
[44] = test system: OVCAR-3 ovarian
[45] = test system: MOLT-4 leukemia
[46] = test system: LXFL 529 NSCLC
[47] = test system: M19-MEL melanoma
[48] = test system: HCT-15 colon
[49] = test system: SF-539 CNS
[50] = test system: LOX IMVI melanoma
[51] = test system: UACC-62 melanoma
[52] = test system: HCT-116 colon
[53] = test system: COLO 205 colon
[54] = test system: DMS 114 small cell lung
[55] = test system: DMS 273 small cell lung
[56] = test system: HOP-18 NSCLC

COc1cccc([C@@]2(O)c3c(ccc(O)c3OC)[C@H]2OC)c1OC
TGI [1]: > 100 µM
TGI [2]: > 100 µM
TGI [3]: > 100 µM
TGI [4]: > 100 µM
TGI [5]: > 100 µM
TGI [6]: > 100 µM
TGI [7]: > 100 µM
TGI [8]: > 100 µM
TGI [9]: > 100 µM
TGI [10]: > 100 µM
TGI [11]: 78.4 µM
TGI [12]: 30.3 µM
TGI [13]: > 100 µM
TGI [14]: 57.3 µM
TGI [15]: > 100 µM
TGI [16]: > 100 µM
TGI [17]: > 100 µM
TGI [18]: > 100 µM
TGI [19]: > 100 µM
TGI [20]: > 100 µM
TGI [21]: > 100 µM
TGI [22]: > 100 µM
TGI [23]: > 100 µM
TGI [24]: > 100 µM
TGI [25]: > 100 µM
TGI [26]: > 100 µM
TGI [27]: > 100 µM
TGI [28]: > 100 µM
TGI [29]: > 100 µM
TGI [30]: 52.2 µM
TGI [31]: > 100 µM
TGI [32]: > 100 µM
TGI [33]: > 100 µM
TGI [34]: > 100 µM
TGI [35]: > 100 µM
TGI [36]: > 100 µM
TGI [37]: > 100 µM
TGI [38]: > 100 µM
TGI [39]: 93.6 µM
TGI [40]: > 100 µM
TGI [41]: > 100 µM
TGI [42]: > 100 µM
TGI [43]: > 100 µM
TGI [44]: > 100 µM
TGI [45]: > 100 µM
TGI [46]: 62.1 µM

CCCCC#COS(=O)(=O)c1ccc(C)cc1
TGI [1]: > 100 µM
TGI [2]: > 100 µM
TGI [3]: > 100 µM
TGI [4]: > 100 µM
TGI [5]: > 100 µM
TGI [6]: > 100 µM
TGI [7]: > 100 µM
TGI [8]: > 100 µM
TGI [47]: > 100 µM
TGI [9]: > 100 µM
TGI [10]: > 100 µM
TGI [11]: > 100 µM
TGI [12]: > 100 µM
TGI [13]: > 100 µM
TGI [14]: > 100 µM
TGI [15]: > 100 µM
TGI [16]: > 100 µM
TGI [17]: > 100 µM
TGI [48]: > 100 µM
TGI [18]: > 100 µM
TGI [19]: > 100 µM
TGI [49]: > 100 µM
TGI [21]: > 100 µM
TGI [22]: > 100 µM
TGI [50]: > 100 µM
TGI [23]: > 100 µM
TGI [24]: > 100 µM
TGI [25]: > 100 µM
TGI [26]: > 100 µM
TGI [27]: > 100 µM
TGI [28]: > 100 µM
TGI [51]: > 100 µM
TGI [29]: 84.9 µM
TGI [30]: > 100 µM
TGI [31]: > 100 µM
TGI [32]: > 100 µM
TGI [52]: > 100 µM
TGI [34]: > 100 µM
TGI [35]: > 100 µM
TGI [36]: > 100 µM
TGI [37]: > 100 µM
TGI [38]: > 100 µM
TGI [53]: > 100 µM
TGI [41]: > 100 µM
TGI [42]: > 100 µM
TGI [43]: > 100 µM
TGI [44]: > 100 µM
TGI [54]: > 100 µM
TGI [45]: > 100 µM
TGI [46]: > 100 µM

CCCCCCC1NN(C(C)=O)C(CCCCCC)NN1C(C)=O (stereo not given)
TGI [1]: > 100 µM
TGI [2]: > 100 µM
TGI [3]: > 100 µM
TGI [4]: > 100 µM
TGI [5]: > 100 µM
TGI [6]: > 100 µM
TGI [7]: > 100 µM
TGI [8]: 33.7 µM
TGI [47]: > 100 µM
TGI [9]: > 100 µM
TGI [10]: > 100 µM
TGI [11]: > 100 µM
TGI [12]: > 100 µM
TGI [13]: > 100 µM
TGI [14]: > 100 µM
TGI [15]: > 100 µM
TGI [16]: 67.4 µM
TGI [17]: > 100 µM
TGI [48]: > 100 µM
TGI [49]: > 100 µM
TGI [21]: 46.1 µM
TGI [22]: > 100 µM
TGI [50]: 46.7 µM
TGI [25]: > 100 µM
TGI [26]: > 100 µM
TGI [27]: > 100 µM
TGI [28]: > 100 µM
TGI [55]: > 100 µM
TGI [51]: > 100 µM
TGI [29]: > 100 µM
TGI [30]: > 100 µM
TGI [31]: > 100 µM
TGI [32]: > 100 µM
TGI [52]: > 100 µM
TGI [33]: > 100 µM
TGI [34]: > 100 µM
TGI [35]: > 100 µM
TGI [36]: > 100 µM
TGI [38]: > 100 µM
TGI [39]: > 100 µM
TGI [40]: > 100 µM
TGI [53]: > 100 µM
TGI [41]: > 100 µM
TGI [42]: > 100 µM
TGI [43]: > 100 µM
TGI [56]: > 100 µM
TGI [44]: > 100 µM
TGI [45]: > 100 µM
TGI [46]: > 100 µM
